Data taken from patent US7838491B2, “Self-assembly and mineralization of peptide-amphiphile nanofibers” (Northwestern University, priority 2001, dated 2010).
Square brackets hold non-standard residues; d marks the D form. Peptide text beside a SMILES is read from it. * marks the point of attachment. Palmitoyl = CCCCCCCCCCCCCCCC(=O)*; pS = N[C@@H](COP(=O)(O)O)C(=O)O

Experiments:
Type in all cases: physicochemical
[1] = solubility of the PA in water
Procedure: (§1) After synthesis (see, example 10), the PA of FIG. 1 (characterized by ^1H NMR and MALDI-TOF MS: [M-H]^−1=1333) was treated with dithiothreitol (DTT) at a pH of 8 to reduce all cysteine residues to free thiols. […] Solutions more concentrated than 2.5 mg/ml form birefringent gels in water that are self-supporting upon inversion of the container. […] Negatives were digitized in the Umax PowerLook scanner with resolution 1200 dpi. The average thickness of the PA fibers was determined by two different procedures. First the Fourier transform of the images and following measurements of the distances between the peaks were performed in the NIH Image […] program. The second approach applied was averaging technique based on the cross-correlation method, widely used in single particle reconstruction using the EMAN […] program. For each data set 1200-1300 individual boxes were selected.

[2] = pH triggered self-assembly and gelation
Procedure: as §1
Upon lowering the pH below 4 with HCl the material self-assembles; when the pH is brought back to neutrality with KOH it disassembles. This pH triggered self-assembly and gelation allows the material to respond to its environment and thus may have applications in controlled release of molecules (W. A. Petka, J. L. Hardin, K. P. McGrath, D. Wirtz, D. A. Tirrell, Science 281, 389-392 (1998)).

[3] = TEM / cryo-TEM of self-assembled fibers
Procedure: as §1

[4] = stability of fibers in alkaline solution (pH 8)
Excerpt: Following self-assembly of PA molecules into fibers, the cysteine thiol groups were oxidized by treatment with 0.01M iodine. […] Importantly, the covalent capture process of this invention can be easily reversed by treating the fibers with a mild reducing agent such as DTT. […] Together with the controlled self-assembly, reversible cross-linking provides a highly dynamic system which can interconvert between discrete molecules, self-assembled supramolecular fibers, covalently captured polymeric fibers and back again to single small molecules depending solely on the environment in which the material is placed.

CCCCCCCCCCCCCCCC(=O)N[C@@H](CS)C(=O)N[C@@H](CS)C(=O)N[C@@H](CS)C(=O)N[C@@H](CS)C(=O)NCC(=O)NCC(=O)NCC(=O)N[C@@H](COP(=O)(O)O)C(=O)N[C@@H](CCCNC(=N)N)C(=O)NCC(=O)N[C@@H](CC(=O)O)C(=O)O [PA 1, CCCCGGGS(P)RGD] (Palmitoyl-CCCCGGG[pS]RGD-OH)
solubility upon acidification ([1]; solution below pH 4): rapidly becomes insoluble | solubility ([1]; water, pH 8, after DTT reduction of cysteines): > 50 mg/mL | concentration dependence of fiber formation ([2]; 0.01 mg/ml to 50 mg/ml): concentration independent | behaviour when pH is brought back to neutrality ([2]; KOH): disassembles | concentration at which solutions form self-supporting birefringent gels ([2]; in water): > 2500 µg/mL | pH at which the material self-assembles ([2]; pH lowered with HCl): below 4 | fiber diameter ([3]; TEM, positively and negatively stained dried fibers): 6.0±1 nm | fiber length ([3]; cryo-TEM of gels): up to several microns | fiber diameter ([3]; cryo-TEM, native hydrated state): 7.6±1 nm | stability to alkaline solutions [4]: disassemble within minutes
